This experiment addresses human NAMPT (Homo sapiens (Human), UniProt P43490). The experiment can be described thus: NMN fluorescence biochemical assay (human recombinant NAMPT enzyme assay). In a few lines:
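Activation of recombinant human NAMPT (6 nM) was tested with 2.5 mM ATP, 20 μM PRPP and 150 μM nicotinamide in 50 mM HEPES pH 7.2 for 60 min at ambient temperature. NMN was derivatized with acetophenone/KOH/formic acid and read by fluorescence (355/460 nm) after 40 min.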

human NAMPT, sequence (P43490 whole entry): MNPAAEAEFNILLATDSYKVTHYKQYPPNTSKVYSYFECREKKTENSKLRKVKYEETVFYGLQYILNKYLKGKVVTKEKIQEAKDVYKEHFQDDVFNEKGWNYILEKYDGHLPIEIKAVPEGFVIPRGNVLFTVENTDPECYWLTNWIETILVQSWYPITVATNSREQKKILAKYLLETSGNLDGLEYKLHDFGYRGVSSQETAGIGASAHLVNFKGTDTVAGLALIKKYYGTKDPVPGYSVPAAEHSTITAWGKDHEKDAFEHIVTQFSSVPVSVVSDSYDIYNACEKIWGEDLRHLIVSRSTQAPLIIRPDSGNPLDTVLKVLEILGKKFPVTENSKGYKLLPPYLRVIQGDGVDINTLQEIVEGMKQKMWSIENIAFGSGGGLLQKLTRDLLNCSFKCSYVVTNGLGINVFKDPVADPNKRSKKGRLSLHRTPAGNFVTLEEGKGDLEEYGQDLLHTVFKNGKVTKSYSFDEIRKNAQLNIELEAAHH

On to `O=C(Nc1ccc(Cc2cocn2)cc1)OCc1ccc(Cl)cc1` [Compound 353, 4-chlorobenzyl (4-(oxazol-4-ylmethyl)phenyl)], for which the “AC1.4 Human” value was found to be 23.63 µM and the EC50 worked out at 24.3 µM.

For `Cc1ncc(C(=O)N[C@@H](C)c2ccc(NC(=O)OCc3ccc(Cl)cc3)cc2)o1` [Compound 218, (4-chlorophenyl)methyl N-{4-[(1S)-1-[(2-methyl-1,3-oxazol-5-yl)formamido]ethyl]phenyl}carbamate], the “AC1.4 Human” value was determined as 1.99 µM and the EC50 is 9.06 µM.

As for `C[C@H](NC(=O)[C@@H]1C[C@@H]2[C@H](C1)C2(F)F)c1ccc(NC(=O)OCc2cnco2)cc1` [Compound 68, 1,3-oxazol-5-ylmethyl N-{4-[(1S)-1-{[(1R,3s,5S)-6,6-difluorobicyclo[3.1.0]hexan-3-yl]formamido}ethyl]phenyl}carbamate], the “AC1.4 Human” value stood at 0.59 µM and the EC50 came to 11.1 µM.

Consider `CC(=O)N1CCC2(CC(c3ccc(NC(=O)OCc4cnco4)cc3F)C2)C1` (single isomer, unassigned) [Compound 372], for which the “AC1.4 Human” value turned out to be 0.09 µM and the EC50 is 5.64 µM.

Turning to `CN(C)S(=O)(=O)N1CCC[C@H](c2ccc(NC(=O)OCc3cnco3)cc2)C1` [Compound 366, oxazol-5-ylmethyl (R)-(4-(1-(N,N-dimethylsulfamoyl)piperidin-3-yl)phenyl)carbamate], the “AC1.4 Human” value worked out at 0.15 µM and the EC50 turned out to be 10.2 µM.

`Cc1ccc(Cc2ccc(NC(=O)OCc3cncs3)cc2)cn1` [Compound 114, thiazol-5-ylmethyl (4-((6-methylpyridin-3-yl)methyl)phenyl)carbamate]: the “AC1.4 Human” value was 0.94 µM and the concentration giving a half-maximal response (EC50) came to 19.7 µM.

As to `CC(=O)N1CCC[C@H](c2ccc(NC(=O)OCc3cnco3)cc2)C1` [Compound 375, oxazol-5-ylmethyl (R)-(4-(1-acetylpiperidin-3-yl)phenyl)carbamate], the “AC1.4 Human” value worked out at 1.32 µM and the concentration giving a half-maximal response (EC50) stood at 53.8 µM.

As to `CC(C)Cn1nccc1C(=O)N(C)Cc1ccc(NC(=O)OCc2ccc(Cl)cc2)cc1` [Compound 94, (4-chlorophenyl)methyl N-[4-({N-methyl-1-[2-(2-methylpropyl)pyrazol-3-yl]formamido}methyl)phenyl]carbamate], the “AC1.4 Human” value was 0.75 µM and the EC50 was found to be 2.36 µM.

With `COC1CCN(C(=O)N(C)[C@@H](C)c2ccc(NC(=O)OCc3ccc(Cl)cc3)cc2)CC1` [Compound 134, 4-chlorobenzyl (S)-(4-(1-(4-methoxy-N-methylpiperidine-1-carboxamido)ethyl)phenyl)carbamate], the “AC1.4 Human” value amounted to 1.07 µM and the concentration for a half-maximal effect (EC50) is 13.7 µM.

As to `O=C(Nc1ccc(CNC(=O)N2CCCCC2)cc1)OCc1ccc(Cl)cc1` [Compound 286, (4-chlorophenyl)methyl N-{4-[(piperidine-1-carbonylamino)methyl]phenyl}carbamate], the “AC1.4 Human” value was determined as 3.79 µM and the concentration for a half-maximal effect (EC50) was found to be 14.2 µM.

As to `CC(=O)N1CC2CCC(C1)C2c1ccc(NC(=O)OCc2cnco2)cc1` (stereo not drawn) [Compound 445, oxazol-5-ylmethyl (4-(3-acetyl-3-azabicyclo[3.2.1]octan-8-yl)phenyl)carbamate], the “AC1.4 Human” value is 0.56 µM and the half-maximal effective concentration (EC50) was determined as 33.5 µM.

As for `CO[C@@H]1CCCN(C(=O)Cc2ccc(NC(=O)OCc3ccc(Cl)cc3)cc2)C1` [Compound 229, (4-chlorophenyl)methyl N-(4-{2-[(3R)-3-methoxypiperidin-1-yl]-2-oxoethyl}phenyl)carbamate], the “AC1.4 Human” value came out at 2.13 µM and the concentration for a half-maximal effect (EC50) was 12.8 µM.

Turning to `Cc1ccc(Cc2ccc(NC(=O)OCc3cnco3)cc2)cn1` [Compound 51, oxazol-5-ylmethyl (4-((6-methylpyridin-3-yl)methyl)phenyl)carbamate], the “AC1.4 Human” value is 0.50 µM and the 50% effective concentration (EC50) was 40.3 µM.

With `CS(=O)(=O)N1CCC[C@H](c2ccc(NC(=O)OCc3cnco3)cc2)C1` [Compound 365, oxazol-5-ylmethyl (R)-(4-(1-(methylsulfonyl)piperidin-3-yl)phenyl)carbamate], the “AC1.4 Human” value stood at 0.33 µM and the half-maximal effective concentration (EC50) was 38.6 µM.

With `Cc1ocnc1C(=O)N[C@@H](C)c1ccc(NC(=O)OCc2ccc(Cl)cc2)cc1` [Compound 241, (4-chlorophenyl)methyl N-{4-[(1S)-1-[(5-methyl-1,3-oxazol-4-yl)formamido]ethyl]phenyl}carbamate], the “AC1.4 Human” value was determined as 2.37 µM and the 50% effective concentration (EC50) stood at 11.8 µM.

Turning to `Cc1ncc(C(=O)NCc2ccc(NC(=O)OCc3ccc(Cl)cc3)cc2)cn1` [Compound 109, (4-chlorophenyl)methyl N-(4-{[(2-methylpyrimidin-5-yl)formamido]methyl}phenyl)carbamate], the “AC1.4 Human” value is 0.90 µM and the half-maximal effective concentration (EC50) is 4.71 µM.

In the case of `O=C(Nc1ccc(CC2CCN(C3COC3)CC2)cc1)OCc1cncs1` [Compound 466, thiazol-5-ylmethyl (4-((1-(oxetan-3-yl)piperidin-4-yl)methyl)phenyl)carbamate], the “AC1.4 Human” value was 1.19 µM and the EC50 stood at 14.5 µM.

With `CC(C)C(=O)N1CCC2(CC(Cc3ccc(NC(=O)OCc4cnco4)cc3F)C2)C1` (stereo not drawn) [Compound 368, oxazol-5-ylmethyl (3-fluoro-4-((6-isobutyryl-6-azaspiro[3.4]octan-2-yl)methyl)phenyl)carbamate], the “AC1.4 Human” value is 0.09 µM and the EC50 amounted to 2.93 µM.

Turning to `COc1ccc(COC(=O)Nc2ccc(CN3CC(S(C)(=O)=O)C3)cc2)cc1` [Compound 324, (4-methoxyphenyl)methyl N-{4-[(3-methanesulfonylazetidin-1-yl)methyl]phenyl}carbamate], the “AC1.4 Human” value came out at 7.47 µM and the concentration for a half-maximal effect (EC50) was determined as 50.9 µM.

Consider `C[C@H](NC(=O)N1CCC1)c1ccc(NC(=O)OCc2ccc(Cl)cc2)cc1` [Compound 96], for which the “AC1.4 Human” value was found to be 0.75 µM and the EC50 stood at 3.47 µM.

As to `C[C@H](NC(=O)C1CC1)c1ccc(NC(=O)OCc2cnco2)cc1` [Compound 266, 1,3-oxazol-5-ylmethyl N-{4-[(1S)-1-(cyclopropylformamido)ethyl]phenyl}carbamate], the “AC1.4 Human” value came out at 2.98 µM and the EC50 stood at 14.9 µM.

Take `O=C(Nc1ccc(CNC(=O)C2CCOCC2)cc1)OCc1ccc(Cl)cc1` [Compound 285, (4-chlorophenyl)methyl N-{4-[(oxan-4-ylformamido)methyl]phenyl}carbamate]: the “AC1.4 Human” value stood at 3.78 µM and the EC50 is 9.55 µM.

In the case of `CS(=O)(=O)N1CCC(Cc2ccc(NC(=O)OCc3cnco3)cc2)C2CC21` (stereo not drawn) [Compound 453, oxazol-5-ylmethyl (4-((2-(methylsulfonyl)-2-azabicyclo[4.1.0]heptan-5-yl)methyl)phenyl)carbamate], the “AC1.4 Human” value is 0.35 µM and the EC50 came to 44 µM.

On to `CC(C)n1nccc1C(=O)N[C@@H](C)c1ccc(NC(=O)OCc2ccc(Cl)cc2)cc1` [Compound 181, (4-chlorophenyl)methyl N-{4-[(1S)-1-[(2-isopropylpyrazol-3-yl)formamido]ethyl]phenyl}carbamate], for which the “AC1.4 Human” value was found to be 1.53 µM and the half-maximal effective concentration (EC50) worked out at 15.6 µM.

On to `Cc1ncc(C(=O)NCc2ccc(NC(=O)OCc3ccc(Cl)cc3)cc2)cc1F` [Compound 146, (4-chlorophenyl)methyl N-(4-{[(5-fluoro-6-methylpyridin-3-yl)formamido]methyl}phenyl)carbamate], for which the “AC1.4 Human” value was found to be 1.20 µM and the EC50 worked out at 2.35 µM.

With `Cc1ccc(C(=O)NCc2ccc(NC(=O)OCc3cn[nH]c3)cc2)cn1` [Compound 9, (1H-pyrazol-4-yl)methyl (4-((6-methylnicotinamido)methyl)phenyl)carbamate], the “AC1.4 Human” value amounted to 0.15 µM and the EC50 was 16 µM.

In the case of `CC(=O)N1CCC2(CC(Cc3ccc(NC(=O)OCc4cnco4)cc3F)C2)C1` (stereo not drawn) [Compound 374, oxazol-5-ylmethyl (4-((6-acetyl-6-azaspiro[3.4]octan-2-yl)methyl)-3-fluorophenyl)carbamate], the “AC1.4 Human” value came to 0.08 µM and the EC50 amounted to 4.17 µM.

Turning to `O=C(Nc1ccc(CNC(=O)c2cnco2)cc1)OCc1ccc(Cl)cc1` [Compound 187, (4-chlorophenyl)methyl N-{4-[(1,3-oxazol-5-ylformamido)methyl]phenyl}carbamate], the “AC1.4 Human” value was 1.62 µM and the half-maximal effective concentration (EC50) was determined as 11.2 µM.

For `CN(C)C(=O)N1CCC2(CC(c3ccc(NC(=O)OCc4cnco4)cc3F)C2)C1` (single isomer, unassigned) [Compound 363], the “AC1.4 Human” value was 0.03 µM and the half-maximal effective concentration (EC50) is 4.49 µM.

`CN(C)C(=O)N1CC2CCC(C1)C2Cc1ccc(NC(=O)OCc2cnco2)cc1` (stereo not drawn) [Compound 422, oxazol-5-ylmethyl (4-((3-(dimethylcarbamoyl)-3-azabicyclo[3.2.1]octan-8-yl)methyl)phenyl)carbamate]: the “AC1.4 Human” value was determined as 0.07 µM and the half-maximal effective concentration (EC50) stood at 11.5 µM.

Take `O=C(Nc1ccc(CNC(=O)c2cncnc2)cc1)OCc1ccc(Cl)cc1` [Compound 175, (4-chlorophenyl)methyl N-{4-[(pyrimidin-5-ylformamido)methyl]phenyl}carbamate]: the “AC1.4 Human” value worked out at 1.47 µM and the EC50 was 8.92 µM.

For `CS(=O)(=O)N1CC2(CC(c3ccc(NC(=O)OCc4cnco4)cc3F)C2)C1` [Compound 388, oxazol-5-ylmethyl (3-fluoro-4-(2-(methylsulfonyl)-2-azaspiro[3.3]heptan-6-yl)phenyl)carbamate], the “AC1.4 Human” value came out at 0.13 µM and the EC50 was 10.2 µM.

Turning to `COc1ccc(COC(=O)Nc2ccc(CN3CCOCC3=O)cc2)cc1` [Compound 174, (4-methoxyphenyl)methyl N-{4-[(3-oxomorpholin-4-yl)methyl]phenyl}carbamate], the “AC1.4 Human” value was determined as 1.47 µM and the EC50 worked out at 28 µM.

For orientation: EC50 means the concentration needed to bring the measured effect to its halfway point.

Values taken from US20240279215A1 (Cytokinetics, Incorporated, priority 2022, published 2024).
